The values that follow come from patent US20220281821A1, “INDAZOLE COMPOUNDS AND THEIR PHARMACEUTICAL COMPOSITIONS” (Jinan University, priority 2019, published 2022).

The target of test [1] is T1, BaF3-ETV6-NTRK3 (Homo sapiens, UniProt Q16288).
T1 construct: fused on or other part: P41212 (Transcription factor ETV6)
The test is described as follows: Cell proliferation inhibition (CCK-8), BaF3-ETV6-NTRK3 stable strain. Type of test: cell-based, mouse. The following applies: BaF3-ETV6-NTRK3, 72 hours. In short, it runs like this: (§1)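 Ba/F3 cells stably electroporated with ETV6-NTRK3, CD74-NTRK1 or ETV6-NTRK2, selected with G418 and grown without IL3, then cloned by limiting dilution.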

Test [2] has as its target T2, TRKC (Homo sapiens, UniProt Q16288).
T2 construct: purchased life technologies PV3617
The test is described as follows: Z′-LYTE kinase activity assay, TRKC. The test is classed as biochemical. The following applies: ATP 50 uM. In outline:
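Recombinant TRK kinase tested in a Z′-LYTE FRET assay with 2 μM Tyr 01 peptide substrate in 50 mM HEPES pH 7.5, 10 mM MgCl2, 1 mM EGTA, 0.01% BRIJ-35. IC50 obtained by curve fitting.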

Test [3] addresses T3, BaF3-ETV6-NTRK2 (Homo sapiens, UniProt Q16620).
T3 construct: fused on or other part: P41212 (Transcription factor ETV6)
Kind of test: Cell proliferation inhibition (CCK-8), BaF3-ETV6-NTRK2 stable strain. The following applies: BaF3-ETV6-NTRK2, 72 hours. The test is classed as cell-based, mouse. In short, it runs like this:
as §1

In test [4] the target is T4, BaF3-CD74-NTRK1 (Homo sapiens, UniProt P04629).
T4 construct: fused on or other part: P04233 (HLA class II histocompatibility antigen gamma chain)
T4 sequence (P04629 510-796 limits assumed): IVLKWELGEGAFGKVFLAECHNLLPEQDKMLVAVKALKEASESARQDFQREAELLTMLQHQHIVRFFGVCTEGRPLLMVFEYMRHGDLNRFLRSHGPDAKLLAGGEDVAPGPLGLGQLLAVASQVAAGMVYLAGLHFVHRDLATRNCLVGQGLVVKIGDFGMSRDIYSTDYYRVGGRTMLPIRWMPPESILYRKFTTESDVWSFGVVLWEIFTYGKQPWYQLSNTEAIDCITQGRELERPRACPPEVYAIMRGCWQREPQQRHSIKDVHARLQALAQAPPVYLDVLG
Kind of test: Cell proliferation inhibition (CCK-8), BaF3-CD74-NTRK1 stable strain. The test is classed as cell-based, mouse. As to conditions: BaF3-CD74-NTRK1, 72 hours. In short, it runs like this:
as §1

Test [5] concerns the target T5, TRKB (Homo sapiens, UniProt Q16620).
T5 construct: purchased life technologies PV3616
Kind of test: Z′-LYTE kinase activity assay, TRKB. The test is classed as biochemical. The following applies: ATP 25 uM. In outline:
(§2)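 IC50 values were fitted to inhibition calculated from the emission-ratio-based phosphorylation ratio relative to negative control, across a compound concentration gradient.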

In test [6] the target is T6, TRKA (Homo sapiens, UniProt P04629).
T6 construct: purchased life technologies PV3144
T6 sequence (P04629 440-796 limits assumed): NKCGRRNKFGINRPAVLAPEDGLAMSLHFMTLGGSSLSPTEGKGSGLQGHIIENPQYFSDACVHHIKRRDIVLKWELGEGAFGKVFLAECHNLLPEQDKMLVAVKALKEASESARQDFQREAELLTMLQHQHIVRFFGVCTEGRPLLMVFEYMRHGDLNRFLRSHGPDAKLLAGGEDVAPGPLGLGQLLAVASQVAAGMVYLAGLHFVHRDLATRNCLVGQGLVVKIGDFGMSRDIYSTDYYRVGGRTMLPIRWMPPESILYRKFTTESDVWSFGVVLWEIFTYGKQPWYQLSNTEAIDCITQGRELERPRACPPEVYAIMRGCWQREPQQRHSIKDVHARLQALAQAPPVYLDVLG
Kind of test: Z′-LYTE kinase activity assay, TRKA. Type of test: biochemical. As to conditions: ATP 400 uM. In short, it runs like this:
as §2

T3 sequence (Q16620 538-822 limits assumed): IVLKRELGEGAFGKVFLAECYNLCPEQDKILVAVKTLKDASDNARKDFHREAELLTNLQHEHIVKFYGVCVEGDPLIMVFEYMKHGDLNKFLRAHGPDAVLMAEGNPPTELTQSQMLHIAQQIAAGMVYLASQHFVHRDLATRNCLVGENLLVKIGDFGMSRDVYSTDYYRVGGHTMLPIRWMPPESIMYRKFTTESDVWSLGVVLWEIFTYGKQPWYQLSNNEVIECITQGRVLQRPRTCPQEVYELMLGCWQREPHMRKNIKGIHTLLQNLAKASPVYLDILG
T5 sequence (Q16620 32-822): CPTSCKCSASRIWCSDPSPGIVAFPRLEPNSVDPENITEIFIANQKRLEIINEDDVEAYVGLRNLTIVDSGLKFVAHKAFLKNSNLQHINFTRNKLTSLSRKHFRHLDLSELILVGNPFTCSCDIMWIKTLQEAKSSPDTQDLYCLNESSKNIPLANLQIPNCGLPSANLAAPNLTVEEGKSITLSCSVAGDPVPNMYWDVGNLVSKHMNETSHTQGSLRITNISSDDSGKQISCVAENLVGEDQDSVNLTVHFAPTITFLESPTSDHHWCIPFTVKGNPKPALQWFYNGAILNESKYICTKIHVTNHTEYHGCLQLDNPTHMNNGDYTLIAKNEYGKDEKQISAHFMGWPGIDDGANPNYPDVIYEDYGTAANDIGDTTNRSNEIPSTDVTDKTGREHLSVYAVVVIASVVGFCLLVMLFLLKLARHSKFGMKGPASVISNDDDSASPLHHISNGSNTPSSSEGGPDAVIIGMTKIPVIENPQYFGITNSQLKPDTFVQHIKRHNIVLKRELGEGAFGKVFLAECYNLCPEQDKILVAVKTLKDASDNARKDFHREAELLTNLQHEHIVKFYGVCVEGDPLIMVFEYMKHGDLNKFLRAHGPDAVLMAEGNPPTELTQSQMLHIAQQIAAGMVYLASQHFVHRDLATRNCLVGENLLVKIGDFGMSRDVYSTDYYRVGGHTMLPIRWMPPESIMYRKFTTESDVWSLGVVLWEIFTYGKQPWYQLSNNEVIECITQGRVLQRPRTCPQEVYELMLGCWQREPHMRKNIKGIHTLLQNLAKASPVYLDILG
T1 sequence (Q16288 whole entry, the tested form may be a part): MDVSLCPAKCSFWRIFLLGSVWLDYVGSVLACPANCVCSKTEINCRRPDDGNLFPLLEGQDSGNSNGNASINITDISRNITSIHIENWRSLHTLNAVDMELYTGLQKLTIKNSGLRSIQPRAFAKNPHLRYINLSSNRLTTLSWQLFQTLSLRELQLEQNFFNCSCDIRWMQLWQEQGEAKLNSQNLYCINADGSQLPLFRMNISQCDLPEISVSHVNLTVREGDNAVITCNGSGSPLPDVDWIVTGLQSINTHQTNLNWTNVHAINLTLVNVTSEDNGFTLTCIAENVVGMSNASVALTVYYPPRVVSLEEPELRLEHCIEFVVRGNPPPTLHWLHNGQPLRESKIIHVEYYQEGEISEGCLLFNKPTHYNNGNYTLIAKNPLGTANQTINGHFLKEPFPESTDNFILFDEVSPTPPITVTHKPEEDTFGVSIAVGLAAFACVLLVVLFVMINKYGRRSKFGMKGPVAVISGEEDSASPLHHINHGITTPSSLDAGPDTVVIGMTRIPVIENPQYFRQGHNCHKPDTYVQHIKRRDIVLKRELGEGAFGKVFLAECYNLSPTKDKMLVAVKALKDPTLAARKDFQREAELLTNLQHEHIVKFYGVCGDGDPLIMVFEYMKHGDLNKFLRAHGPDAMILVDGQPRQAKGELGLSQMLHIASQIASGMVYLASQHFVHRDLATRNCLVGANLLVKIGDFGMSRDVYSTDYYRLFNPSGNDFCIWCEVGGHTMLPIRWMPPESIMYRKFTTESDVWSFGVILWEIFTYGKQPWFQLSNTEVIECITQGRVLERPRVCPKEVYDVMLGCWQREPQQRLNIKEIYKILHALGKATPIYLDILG
T2 sequence (Q16288 32-839): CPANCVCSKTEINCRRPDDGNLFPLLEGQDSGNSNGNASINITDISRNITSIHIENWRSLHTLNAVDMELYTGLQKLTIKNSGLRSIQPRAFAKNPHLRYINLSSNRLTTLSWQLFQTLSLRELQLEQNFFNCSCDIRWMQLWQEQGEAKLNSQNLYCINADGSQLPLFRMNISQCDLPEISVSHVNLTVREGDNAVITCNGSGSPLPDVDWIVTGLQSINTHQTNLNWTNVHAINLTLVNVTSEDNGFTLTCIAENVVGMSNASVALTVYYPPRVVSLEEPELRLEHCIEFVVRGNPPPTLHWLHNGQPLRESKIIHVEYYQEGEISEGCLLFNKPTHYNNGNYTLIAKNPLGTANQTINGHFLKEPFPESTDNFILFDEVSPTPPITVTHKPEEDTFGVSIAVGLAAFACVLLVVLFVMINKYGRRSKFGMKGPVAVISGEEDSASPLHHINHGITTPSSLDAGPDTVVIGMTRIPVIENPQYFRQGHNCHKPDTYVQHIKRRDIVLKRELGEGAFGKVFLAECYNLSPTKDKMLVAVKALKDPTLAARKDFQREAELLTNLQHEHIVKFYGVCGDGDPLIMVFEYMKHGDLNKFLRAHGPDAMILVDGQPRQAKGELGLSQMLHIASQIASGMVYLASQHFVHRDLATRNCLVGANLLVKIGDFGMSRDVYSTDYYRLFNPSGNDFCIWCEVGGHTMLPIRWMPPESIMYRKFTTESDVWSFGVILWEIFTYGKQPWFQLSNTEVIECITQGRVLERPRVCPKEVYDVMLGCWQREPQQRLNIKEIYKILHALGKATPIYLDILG

Regarding `Fc1cc(F)cc(Oc2ccc3[nH]nc(C#Cc4ccccn4)c3c2)c1` [DYX-092, 5-(3,5-difluorophenoxy)-3-(pyridin-2-ylethynyl)-1H-indazole], the IC50 (in general, the concentration that gives 50% inhibition) in test [1] worked out at 2770 nM; in test [2], 200 nM; in test [3], 2610 nM; in test [4] it was 3060 nM; in test [5], 310 nM; in test [6], 51.7 nM.

On to `Fc1cc(F)cc(Oc2ccc3[nH]nc(/C=C/c4ccccn4)c3c2)c1` [DYX-101, (E)-5-(3,5-difluorophenoxy)-3-(2-(pyridin-2-yl)vinyl)-1H-indazole], for which the IC50 in test [1] amounted to 500 nM; in test [2], 24.8 nM; in test [3], 571 nM; in test [4], 595 nM; in test [5], 36.6 nM; in test [6] it was 21.8 nM.

Take `O=S(=O)(c1cc(F)cc(F)c1)c1ccc2[nH]nc(C#Cc3ccccn3)c2c1` [DYX-108, 5-((3,5-difluorophenyl)sulfonyl)-3-(pyridin-2-ylethynyl)-1H-indazole]: the IC50 in test [1] amounted to 749 nM; in test [2] it was 21.4 nM; in test [3] it was 914 nM; in test [4], 888 nM; in test [5], 43.1 nM; in test [6], 8.1 nM.

Take `O=S(=O)(c1cc(F)cc(F)c1)c1ccc2[nH]nc(/C=C/c3ccccn3)c2c1` [DYX-114, (E)-5-((3,5-difluorophenyl)sulfonyl)-3-(2-(pyridin-2-yl)vinyl)-1H-indazole]: the IC50 in test [1] was determined as 155 nM; in test [2] it was 2.8 nM; in test [3], 175 nM; in test [4], 411 nM; in test [5], 7 nM; in test [6], 1.2 nM.

Take `Fc1cc(F)cc(-c2ccc3[nH]nc(C#Cc4ccccn4)c3c2)c1` [DYX-115, 5-(3,5-difluorophenyl)-3-(pyridin-2-ylethynyl)-1H-indazole]: the IC50 was > 10000 nM in test [1]; > 1000 nM in test [2]; > 10000 nM in test [3]; > 10000 nM in test [4]; > 1000 nM in test [5]; > 1000 nM in test [6].

On to `Fc1cc(F)cc(-c2ccc3[nH]nc(/C=C/c4ccccn4)c3c2)c1` [DYX-119, (E)-5-(3,5-difluorophenyl)-3-(2-(pyridin-2-yl)vinyl)-1H-indazole], for which the IC50 is > 10000 nM in test [1]; 226 nM in test [2]; > 10000 nM in test [3]; > 10000 nM in test [4]; > 1000 nM in test [5]; 648 nM in test [6].

As for `Fc1cc(F)cc(Nc2ccc3[nH]nc(C#Cc4ccccn4)c3c2)c1` [DYX-129, N-(3,5-difluorophenyl)-3-(pyridin-2-ylethynyl)-1H-indazol-5-amine], the concentration for half-maximal inhibition (IC50) is 3150 nM in test [1]; 575 nM in test [2]; 2800 nM in test [3]; 9980 nM in test [4]; > 1000 nM in test [5]; > 1000 nM in test [6].

In the case of `CN(c1cc(F)cc(F)c1)c1ccc2[nH]nc(C#Cc3ccccn3)c2c1` [DYX-130, N-(3,5-difluorophenyl)-N-methyl-3-(pyridin-2-ylethynyl)-1H-indazol-5-amine], the IC50 stood at 3090 nM in test [1]; 235 nM in test [2]; 9840 nM in test [3]; 3810 nM in test [4]; 993 nM in test [5]; 319 nM in test [6].

For `Fc1cc(F)cc(COc2ccc3[nH]nc(C#Cc4ccccn4)c3c2)c1` [DYX-131, 5-((3,5-difluorobenzyl)oxo)-3-(pyridin-2-ylethynyl)-1H-indazole], the 50% inhibitory concentration (IC50) in test [1] is 2210 nM; in test [2], 20 nM; in test [3] it was 1610 nM; in test [4], 2900 nM; in test [5] it was 71.3 nM; in test [6] it was 31.3 nM.

In the case of `Fc1cc(F)cc(COc2ccc3[nH]nc(/C=C/c4ccccn4)c3c2)c1` [DYX-132, (E)-5-((3,5-difluorobenzyl)oxo)-3-(2-(pyridin-2-yl)vinyl)-1H-indazole], the IC50 in test [1] amounted to 96.2 nM; in test [2] it was 3 nM; in test [3], 178 nM; in test [4] it was 156 nM; in test [5], 9.8 nM; in test [6] it was 3.3 nM.

In the case of `Clc1cccc(Cc2ccc3[nH]nc(C#Cc4ccccn4)c3c2)c1` [DYX-134Q, 5-(3-chlorobenzyl)-3-(pyridin-2-ylethynyl)-1H-indazole], the IC50 in test [1] is 2650 nM; in test [2] it was 40.3 nM; in test [3], 4620 nM; in test [4], > 10000 nM; in test [5], 124 nM; in test [6] it was 91.9 nM.

Regarding `Clc1cccc(Cc2ccc3[nH]nc(/C=C/c4ccccn4)c3c2)c1` [DYX-134X, (E)-5-(3-chlorobenzyl)-3-(2-(pyridin-2-yl)vinyl)-1H-indazole], the 50% inhibitory concentration (IC50) in test [1] was 846 nM; in test [2], 28.3 nM; in test [3], 1880 nM; in test [4] it was 2360 nM; in test [5] it was 211 nM; in test [6], 70.9 nM.

Consider `COc1cccc(Cc2ccc3[nH]nc(C#Cc4ccccn4)c3c2)c1` [DYX-135Q, 5-(3-methoxybenzyl)-3-(pyridin-2-ylethynyl)-1H-indazole], for which the concentration for half-maximal inhibition (IC50) in test [1] is > 10000 nM; in test [2] it was 211 nM; in test [3], > 10000 nM; in test [4], > 10000 nM; in test [5], 817 nM; in test [6], 292 nM.

Consider `COc1cccc(Cc2ccc3[nH]nc(/C=C/c4ccccn4)c3c2)c1` [DYX-135X, (E)-5-(3-methoxybenzyl)-3-(2-(pyridin-2-yl)vinyl)-1H-indazole], for which the IC50 in test [1] was determined as 2400 nM; in test [2] it was 22.5 nM; in test [3] it was 2980 nM; in test [4], 2990 nM; in test [5] it was 70.5 nM; in test [6] it was 49.4 nM.

As to `N#Cc1cccc(Cc2ccc3[nH]nc(/C=C/c4ccccn4)c3c2)c1` [DYX-136X, (E)-3-((3-(2-(pyridin-2-yl)vinyl)-1H-indazol-5-yl)methyl)benzonitrile], the IC50 was 733 nM in test [1]; 5.8 nM in test [2]; 1070 nM in test [3]; 603 nM in test [4]; 91 nM in test [5]; 4.8 nM in test [6].

For the molecule `Cc1cccc(Cc2ccc3[nH]nc(C#Cc4ccccn4)c3c2)c1` [DYX-137Q, 5-(3-methylbenzyl)-3-(pyridin-2-ylethynyl)-1H-indazole], the half-maximal inhibitory concentration (IC50) is > 10000 nM in test [1]; 91.1 nM in test [2]; > 10000 nM in test [3]; > 10000 nM in test [4]; 397 nM in test [5]; 213 nM in test [6].

Regarding `Cc1cccc(Cc2ccc3[nH]nc(/C=C/c4ccccn4)c3c2)c1` [DYX-137X, (E)-5-(3-methylbenzyl)-3-(2-(pyridin-2-yl)vinyl)-1H-indazole], the IC50 in test [1] came to 3180 nM; in test [2], 21.9 nM; in test [3], 3720 nM; in test [4] it was 2420 nM; in test [5] it was 80.8 nM; in test [6], 33.8 nM.

Take `FC(F)(F)c1cccc(Cc2ccc3[nH]nc(/C=C/c4ccccn4)c3c2)c1` [DYX-138X, (E)-3-(2-(pyridin-2-yl)vinyl)-5-(3-(trifluoromethyl)benzyl)-1H-indazole]: the IC50 in test [1] was > 10000 nM; in test [2], 262 nM; in test [3], 4080 nM; in test [4], 6650 nM; in test [5] it was 356 nM; in test [6] it was 757 nM.
